Experimental data reported in PubChem BioAssay (NCI).
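Results reflect a 48-hour exposure of cells in 96-well plates to compound at five concentrations. The concentration for 50% growth inhibition is given as GI50. TGI: total growth inhibition.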

These compounds were tested on HCT-116 colon (assay: inhibition of tumour cell growth, NCI panel, 48 h).
CCOC(=O)c1c(N2CCOCC2)[nH]c(=O)c(C(c2c(Cl)cccc2Cl)c2c(O)c(C(=O)OCC)c(N3CCOCC3)[nH]c2=O)c1O showed a TGI of 8.83 µM. Work on CC/C=C\C[C@H](O)C/C=C1/C(=O)C=C[C@@H]1C/C=C\CCCC(=O)OC yielded a GI50 of 0.572 µM and a TGI of 2.92 µM.

The compounds below were run on A498 renal (assay: inhibition of tumour cell growth, NCI panel, 48 h).
Nc1nc(Nc2cccnc2)sc1C(=O)c1ccccc1F showed a GI50 of 2.59 µM and a TGI of 7.02 µM. COc1ccc2[nH]c3c4[nH]c5ccc(OC)cc5c4c4c(c3c2c1)C(=O)NC4=O was tested, and the GI50 was 7.36 µM and the TGI was greater than 25 µM. CCOC(=O)c1c(N2CCOCC2)[nH]c(=O)c(C(c2c(Cl)cccc2Cl)c2c(O)c(C(=O)OCC)c(N3CCOCC3)[nH]c2=O)c1O gave a TGI of 20.9 µM. Work on CC/C=C\C[C@H](O)C/C=C1/C(=O)C=C[C@@H]1C/C=C\CCCC(=O)OC yielded a GI50 of 4.91 µM and a TGI of 14.4 µM.

What follows are compounds tested on UACC-62 melanoma (assay: inhibition of tumour cell growth, NCI panel, 48 h).
For Nc1nc(Nc2cccnc2)sc1C(=O)c1ccccc1F, the GI50 was 1.78 µM and the TGI was 5.34 µM. For COc1ccc2[nH]c3c4[nH]c5ccc(OC)cc5c4c4c(c3c2c1)C(=O)NC4=O, the GI50 was greater than 25 µM and the TGI was greater than 25 µM. CCOC(=O)c1c(N2CCOCC2)[nH]c(=O)c(C(c2c(Cl)cccc2Cl)c2c(O)c(C(=O)OCC)c(N3CCOCC3)[nH]c2=O)c1O gave a TGI of 20 µM. Work on CC/C=C\C[C@H](O)C/C=C1/C(=O)C=C[C@@H]1C/C=C\CCCC(=O)OC yielded a GI50 of 1.05 µM and a TGI of 3.49 µM.

These compounds were tested on NCI/ADR-RES ovarian (assay: inhibition of tumour cell growth, NCI panel, 48 h).
With Nc1nc(Nc2cccnc2)sc1C(=O)c1ccccc1F the GI50 was 0.844 µM and the TGI was 12.2 µM. In the case of COc1ccc2[nH]c3c4[nH]c5ccc(OC)cc5c4c4c(c3c2c1)C(=O)NC4=O, the GI50 is reported as greater than 25 µM and the TGI is reported as greater than 25 µM. Compound CCOC(=O)c1c(N2CCOCC2)[nH]c(=O)c(C(c2c(Cl)cccc2Cl)c2c(O)c(C(=O)OCC)c(N3CCOCC3)[nH]c2=O)c1O has a TGI of 33.8 µM. CC/C=C\C[C@H](O)C/C=C1/C(=O)C=C[C@@H]1C/C=C\CCCC(=O)OC was tested, and the GI50 was 2.61 µM and the TGI was 10.8 µM.

Each compound was assayed on SNB-75 CNS (assay: inhibition of tumour cell growth, NCI panel, 48 h).
With Nc1nc(Nc2cccnc2)sc1C(=O)c1ccccc1F the GI50 was 0.58 µM and the TGI was 4.74 µM. In the case of COc1ccc2[nH]c3c4[nH]c5ccc(OC)cc5c4c4c(c3c2c1)C(=O)NC4=O, the GI50 is reported as greater than 13.2 µM and the TGI is reported as greater than 25 µM. For CCOC(=O)c1c(N2CCOCC2)[nH]c(=O)c(C(c2c(Cl)cccc2Cl)c2c(O)c(C(=O)OCC)c(N3CCOCC3)[nH]c2=O)c1O, the TGI was 15.6 µM. For CC/C=C\C[C@H](O)C/C=C1/C(=O)C=C[C@@H]1C/C=C\CCCC(=O)OC, the GI50 was 11.7 µM and the TGI was 26 µM.

The compounds below were run on 786-0 renal (assay: inhibition of tumour cell growth, NCI panel, 48 h).
Nc1nc(Nc2cccnc2)sc1C(=O)c1ccccc1F showed a GI50 of 3.18 µM and a TGI greater than 34.9 µM. Compound COc1ccc2[nH]c3c4[nH]c5ccc(OC)cc5c4c4c(c3c2c1)C(=O)NC4=O has a GI50 greater than 12.9 µM and a TGI greater than 25 µM. CCOC(=O)c1c(N2CCOCC2)[nH]c(=O)c(C(c2c(Cl)cccc2Cl)c2c(O)c(C(=O)OCC)c(N3CCOCC3)[nH]c2=O)c1O showed a TGI of 6.47 µM. CC/C=C\C[C@H](O)C/C=C1/C(=O)C=C[C@@H]1C/C=C\CCCC(=O)OC showed a GI50 of 1.86 µM and a TGI of 3.62 µM.

The compounds below were run on PC-3 prostate (assay: inhibition of tumour cell growth, NCI panel, 48 h).
Nc1nc(Nc2cccnc2)sc1C(=O)c1ccccc1F showed a GI50 of 3.29 µM and a TGI greater than 100 µM. With COc1ccc2[nH]c3c4[nH]c5ccc(OC)cc5c4c4c(c3c2c1)C(=O)NC4=O the GI50 was greater than 15.7 µM and the TGI was greater than 25 µM. CCOC(=O)c1c(N2CCOCC2)[nH]c(=O)c(C(c2c(Cl)cccc2Cl)c2c(O)c(C(=O)OCC)c(N3CCOCC3)[nH]c2=O)c1O gave a TGI of 29.1 µM. With CC/C=C\C[C@H](O)C/C=C1/C(=O)C=C[C@@H]1C/C=C\CCCC(=O)OC the GI50 was 2.7 µM and the TGI was 7.29 µM.

These compounds were tested on U251 CNS (assay: inhibition of tumour cell growth, NCI panel, 48 h).
Work on Nc1nc(Nc2cccnc2)sc1C(=O)c1ccccc1F yielded a GI50 of 2.71 µM and a TGI greater than 100 µM. COc1ccc2[nH]c3c4[nH]c5ccc(OC)cc5c4c4c(c3c2c1)C(=O)NC4=O gave a GI50 greater than 8.42 µM and a TGI greater than 25 µM. Work on CCOC(=O)c1c(N2CCOCC2)[nH]c(=O)c(C(c2c(Cl)cccc2Cl)c2c(O)c(C(=O)OCC)c(N3CCOCC3)[nH]c2=O)c1O yielded a TGI of 15.8 µM. CC/C=C\C[C@H](O)C/C=C1/C(=O)C=C[C@@H]1C/C=C\CCCC(=O)OC gave a GI50 of 1.63 µM and a TGI of 4.07 µM.

Each compound was assayed on OVCAR-3 ovarian (assay: inhibition of tumour cell growth, NCI panel, 48 h).
For Nc1nc(Nc2cccnc2)sc1C(=O)c1ccccc1F, the GI50 was 2.82 µM and the TGI was greater than 28.1 µM. Compound COc1ccc2[nH]c3c4[nH]c5ccc(OC)cc5c4c4c(c3c2c1)C(=O)NC4=O has a GI50 greater than 11.2 µM and a TGI greater than 25 µM. Work on CCOC(=O)c1c(N2CCOCC2)[nH]c(=O)c(C(c2c(Cl)cccc2Cl)c2c(O)c(C(=O)OCC)c(N3CCOCC3)[nH]c2=O)c1O yielded a TGI of 12.1 µM. For CC/C=C\C[C@H](O)C/C=C1/C(=O)C=C[C@@H]1C/C=C\CCCC(=O)OC, the GI50 was 0.692 µM and the TGI was 2.13 µM.

What follows are compounds tested on A549 NSCLC (assay: inhibition of tumour cell growth, NCI panel, 48 h).
With Nc1nc(Nc2cccnc2)sc1C(=O)c1ccccc1F the GI50 was 3.16 µM and the TGI was greater than 100 µM. Compound COc1ccc2[nH]c3c4[nH]c5ccc(OC)cc5c4c4c(c3c2c1)C(=O)NC4=O has a GI50 greater than 9.75 µM and a TGI greater than 25 µM. Work on CCOC(=O)c1c(N2CCOCC2)[nH]c(=O)c(C(c2c(Cl)cccc2Cl)c2c(O)c(C(=O)OCC)c(N3CCOCC3)[nH]c2=O)c1O yielded a TGI of 32.5 µM. CC/C=C\C[C@H](O)C/C=C1/C(=O)C=C[C@@H]1C/C=C\CCCC(=O)OC was tested, and the GI50 was 2.78 µM and the TGI was 7.63 µM.

The compounds below were run on BT-549 breast (assay: inhibition of tumour cell growth, NCI panel, 48 h).
For Nc1nc(Nc2cccnc2)sc1C(=O)c1ccccc1F, the GI50 was 1.64 µM and the TGI was 6.54 µM. In the case of COc1ccc2[nH]c3c4[nH]c5ccc(OC)cc5c4c4c(c3c2c1)C(=O)NC4=O, the GI50 is reported as greater than 9.4 µM and the TGI is reported as greater than 25 µM. Compound CCOC(=O)c1c(N2CCOCC2)[nH]c(=O)c(C(c2c(Cl)cccc2Cl)c2c(O)c(C(=O)OCC)c(N3CCOCC3)[nH]c2=O)c1O has a TGI of 19.6 µM. For CC/C=C\C[C@H](O)C/C=C1/C(=O)C=C[C@@H]1C/C=C\CCCC(=O)OC, the GI50 was 2.15 µM and the TGI was 6.07 µM.

Each compound was assayed on HS 578T breast (assay: inhibition of tumour cell growth, NCI panel, 48 h).
Nc1nc(Nc2cccnc2)sc1C(=O)c1ccccc1F was tested, and the GI50 was 3.02 µM and the TGI was 10.8 µM. Work on COc1ccc2[nH]c3c4[nH]c5ccc(OC)cc5c4c4c(c3c2c1)C(=O)NC4=O yielded a GI50 of 1.35 µM and a TGI greater than 25 µM. With CCOC(=O)c1c(N2CCOCC2)[nH]c(=O)c(C(c2c(Cl)cccc2Cl)c2c(O)c(C(=O)OCC)c(N3CCOCC3)[nH]c2=O)c1O the TGI was 19.4 µM. CC/C=C\C[C@H](O)C/C=C1/C(=O)C=C[C@@H]1C/C=C\CCCC(=O)OC showed a GI50 of 5.18 µM and a TGI of 40.1 µM.

Each compound was assayed on K-562 leukemia (assay: inhibition of tumour cell growth, NCI panel, 48 h).
Nc1nc(Nc2cccnc2)sc1C(=O)c1ccccc1F was tested, and the GI50 was 6.69 µM and the TGI was greater than 65.4 µM. For COc1ccc2[nH]c3c4[nH]c5ccc(OC)cc5c4c4c(c3c2c1)C(=O)NC4=O, the GI50 was greater than 6.63 µM and the TGI was greater than 25 µM. Work on CCOC(=O)c1c(N2CCOCC2)[nH]c(=O)c(C(c2c(Cl)cccc2Cl)c2c(O)c(C(=O)OCC)c(N3CCOCC3)[nH]c2=O)c1O yielded a TGI of 6.55 µM. Work on CC/C=C\C[C@H](O)C/C=C1/C(=O)C=C[C@@H]1C/C=C\CCCC(=O)OC yielded a GI50 of 0.732 µM and a TGI of 21.7 µM.

What follows are compounds tested on M14 melanoma (assay: inhibition of tumour cell growth, NCI panel, 48 h).
In the case of Nc1nc(Nc2cccnc2)sc1C(=O)c1ccccc1F, the GI50 is reported as 4.64 µM and the TGI is reported as 20.2 µM. Compound COc1ccc2[nH]c3c4[nH]c5ccc(OC)cc5c4c4c(c3c2c1)C(=O)NC4=O has a GI50 greater than 13.1 µM and a TGI greater than 25 µM. Work on CCOC(=O)c1c(N2CCOCC2)[nH]c(=O)c(C(c2c(Cl)cccc2Cl)c2c(O)c(C(=O)OCC)c(N3CCOCC3)[nH]c2=O)c1O yielded a TGI of 5.15 µM. CC/C=C\C[C@H](O)C/C=C1/C(=O)C=C[C@@H]1C/C=C\CCCC(=O)OC was tested, and the GI50 was 1.32 µM and the TGI was 4.72 µM.

The compounds below were run on HL-60(TB) leukemia (assay: inhibition of tumour cell growth, NCI panel, 48 h).
Compound Nc1nc(Nc2cccnc2)sc1C(=O)c1ccccc1F has a GI50 of 2.09 µM and a TGI of 4.81 µM. Work on COc1ccc2[nH]c3c4[nH]c5ccc(OC)cc5c4c4c(c3c2c1)C(=O)NC4=O yielded a GI50 greater than 21.1 µM and a TGI greater than 25 µM. Work on CCOC(=O)c1c(N2CCOCC2)[nH]c(=O)c(C(c2c(Cl)cccc2Cl)c2c(O)c(C(=O)OCC)c(N3CCOCC3)[nH]c2=O)c1O yielded a TGI of 4.37 µM. CC/C=C\C[C@H](O)C/C=C1/C(=O)C=C[C@@H]1C/C=C\CCCC(=O)OC was tested, and the GI50 was 1.74 µM and the TGI was 7.07 µM.
